US20150166505A1, “PYRIDINYL-SUBSTITUTED PYRAZOLYL CARBOXAMIDES” (GRÜNENTHAL GMBH, priority 2013, published 2015)
Structures can show the parent of a compound that is named as a salt. Where two headings read alike, the source gives them in different places.

How the values were obtained:
[1] = molecular target: T1, CRAC channel (endogenous SOC in HEK293 cells) (Homo sapiens, UniProt Q96D31); experiment: HEK Calcium Influx Assay (FLIPR); assay type: cell-based
T1 construct: endogenous in cells; host or cells: HEK293 (ECACC)
Procedure: The effect of compounds of the invention on intracellular [Ca^2+] was tested in the HEK293 cell line (ECACC). HEK293 cells were cultured in DMEM/F12/Glutamax (Gibco) containing 10% FCS (Gibco), and maintained at 37° C., 5% CO2. Cell were split twice a week [3*10^6 (Mon-Thu) and 1*10^6 (Thu-Mon) cells/50 ml medium in T-175 ZK culture flasks, respectively]. Twenty four hours pre-experiment, cells were seeded on 96 well plates (Poly-D-Lysine 96well Black/Clear Plate, BD Biocoat REF 356640) at a density of 40,000 cells/well in DMEM/F12 (Gibco) containing 10% FCS (Gibco), and maintained at 37° C., 5% CO2. Prior to store-depletion, cell culture medium was removed and cells were loaded with the a Calcium-sensitive fluorescent dye comprised within the Calcium-4-assay kit (Molecular Devices) in nominally Ca^2+-free HBS buffer (140 mM NaCl, 4 mM KCl, 0.2 mM MgCl2, 11 mM D-glucose, and 10 mM HEPES, pH 7.4) according to manufacturer's instruction for 60 min at 37° C., 5% CO2. Passive depletion of intracellular Ca^2+-stores was then triggered by employing the SERCA inhibitor thapsigargin (2 μM final) for 10 min in the dark (RT). To prevent immediate Ca^2+-entry via the activated Store-operated channels (SOCs), cells were maintained in Ca^2+-free HBS buffer comprising 100 μM EGTA during store-depletion. Intracellular changes in [Ca^2+] were subsequently monitored with the FLIPR device (Molecular Devices). In brief, baseline imaging post-store depletion was allowed for 1 min before adjusting the extracellular buffer to 3 mM CaCl2. Increases in intracellular [Ca^2+] due to pre-activated SOC channels were monitored for 15 min until intracellular Ca^2+ levels had declined into a steady-state. Finally, compounds were administered and Ca^2+ signals were recorded for additional 10 min. Inhibition of endogenous SOC in HEK293 cells was quantified employing the average Ca^2+ signal measured from 9.5-10 min post-administration. Zero percent inhibition (MAX) was defined as the Ca^2+ signal recorded from wells to which DMSO-only had been added instead of compound. Hundred percent inhibition (MIN) was defined as the signal obtained from wells in which cells haven't been treated with TG prior to Ca^2+ addition and to which DMSO-only had been added instead of compound. For routine IC50 determinations of compounds, 8 concentrations of a serial dilution (1:3.16) were tested, starting off from 10 μM. Reliable IC50's could consequently be determined only, if they were at least sub 2.5-3 μM.

[2] = test system: Interleukin-2 (IL-2) production/release in Jurkat T cell line; experiment: Jurkat IL-2 Production Assay; assay type: cell-based; settings: Homo sapiens; Jurkat T cells, PHA stimulation 22 hours
Procedure: Jurkat IL-2 Production Assay
The effect of compounds of the invention on Interleukin-2 (IL-2) production/release was tested in the Jurkat T cell line (ECACC) clone E6-1. Jurkat T cells were cultured in DMEM/F12/Glutamax (Gibco) containing 10% FCS (Gibco), and maintained at 37° C., 5% CO2. Cell were split twice a week [5*10^6 (Mon-Thu) and 1*10^7 (Thu-Mon) cells/50 ml medium in T-175 ZK culture flasks, respectively]. Prior to experiment, cells were seeded on 96 well plates (Cellstar 96 Well; Cat No. 655180, Greiner bio-one) at a density of 5*10^5 cells/well in DMEM/F12/Glutamax (Gibco) containing 10% FCS (Gibco), and incubated for 60 min at 37° C., 5% CO2. Subsequently, compounds were added and cells were allowed to incubate for 30 min at 37° C., 5% CO2. Cells were then stimulated with 15 μg/ml Phytohemagglutinin (PHA; Sigma) for 22 hours at 37° C., 5% CO2. Before sampling of the supernatants, cells were spun down (200*g/5 min/RT). The amount of IL-2 released into the supernatant was quantified with the human IL-2 AlphaLisa kit (Perkin Elmer) according to manufacturer's instructions. Luminescence proximity measurements were carried out in the Synergy H4 reader (BioTek) employing the fluorescence setting of the reader (ex: 680/30 nm; em: 620/40 nm). Inhibition of IL-production/release in/from Jurkat T cells was quantified as follows: Zero percent inhibition (MAX) was defined as the [IL-2] determined in supernatants derived from cells to which PHA & DMSO-only had been added instead of compound. Hundred percent inhibition (MIN) was defined as the [IL-2] determined in supernatants derived from cells that had been pre-treated with 1 μM CyclosporineA (Sigma) before the addition of 15 μg/ml PHA. For routine IC50 determinations of compounds, 8 concentrations of a serial dilution (1:3.16) were tested, starting off from 10 μM.

[3] = thapsigargin store depletion, read-out: % inhib. [@ 10 μM] FLIPR
[4] = numeric values of Table 2, read-out: inhib. [@ 10 μM] FLIPR

T1 sequence (Q96D31 whole entry): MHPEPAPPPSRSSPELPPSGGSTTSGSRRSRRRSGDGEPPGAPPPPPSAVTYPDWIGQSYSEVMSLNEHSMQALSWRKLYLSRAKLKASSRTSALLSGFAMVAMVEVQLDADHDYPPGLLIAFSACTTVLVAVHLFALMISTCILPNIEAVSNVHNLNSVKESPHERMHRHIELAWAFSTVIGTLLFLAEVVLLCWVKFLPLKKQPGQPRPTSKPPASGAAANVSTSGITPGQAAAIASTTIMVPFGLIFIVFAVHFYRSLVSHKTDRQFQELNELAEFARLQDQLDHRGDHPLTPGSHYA

| SMILES | inhibition at 10 µM [1, 3] | IC50 [2] | inhibition at 10 µM [1, 4] |
| --- | --- | --- | --- |
| COc1cc(OC)c(-c2c(C)c(C(=O)Nc3cncc(F)c3C)nn2C)cn1 [Example 67, 5-(4,6-Dimethoxy-pyridin-3-yl)-N-(5-fluoro-4-methyl-pyridin-3-yl)-1,4-dimethyl-1H-pyrazole-3-carboxylic acid amide] | > 70% | 1 to 5 µM |  |
| COc1cc(OC)c(-c2c(C)c(C(=O)Nc3cnc(C)cc3C)nn2C)cn1 [Example 66, 5-(4,6-Dimethoxy-pyridin-3-yl)-N-(4,6-dimethyl-pyridin-3-yl)-1,4-dimethyl-1H-pyrazole-3-carboxylic acid amide] | 50 to 70% | 1 to 5 µM |  |
| CCOc1cc(OC)c(-c2cc(C(=O)Nc3c(F)cccc3F)n[nH]2)cn1 [Example 68, N-(2,6-Difluoro-phenyl)-5-(6-ethoxy-4-methoxy-pyridin-3-yl)-1H-pyrazole-3-carboxylic acid amide hydrochloride] | > 70% | 1 to 5 µM |  |
| COc1cc(OCC2CCC2)ncc1-c1cc(C(=O)Nc2c(F)cccc2F)nn1C [Example 55, 5-[6-(Cyclobutyl-methoxy)-4-methoxy-pyridin-3-yl]-N-(2,6-difluoro-phenyl)-1-methyl-1H-pyrazole-3-carboxylic acid amide] | > 70% | < 0.5 µM |  |
| COc1cc(OC)c(-c2c(C)c(C(=O)Nc3c(F)cccc3F)nn2C)cn1 [Example 64, N-(2,6-Difluoro-phenyl)-5-(4,6-dimethoxy-pyridin-3-yl)-1,4-dimethyl-1H-pyrazole-3-carboxylic acid amide] | > 70% | 1 to 5 µM |  |
| COc1cc(C2CC2)ncc1-c1cc(C(=O)Nc2c(F)cncc2F)nn1C [Example 53, 5-(6-Cyclopropyl-4-methoxy-pyridin-3-yl)-N-(3,5-difluoro-pyridin-4-yl)-1-methyl-1H-pyrazole-3-carboxylic acid amide] |  | 0.5 to 1 µM |  |
| Cc1cc(N(C)C)ncc1-c1cc(C(=O)Nc2c(F)cccc2F)nn1C [Example 37, N-(2,6-Difluoro-phenyl)-5-(6-dimethylamino-4-methyl-pyridin-3-yl)-1-methyl-1H-pyrazole-3-carboxylic acid amide] | > 70% | 1 to 5 µM | 98% |
| COc1cc(O)ncc1-c1cc(C(=O)Nc2c(F)cccc2F)nn1C [Example 70, N-(2,6-Difluoro-phenyl)-5-(6-hydroxy-4-methoxy-pyridin-3-yl)-1-methyl-1H-pyrazole-3-carboxylic acid amide] | < 50% |  |  |
| CCOc1cc(OCC)c(-c2cc(C(=O)Nc3c(F)cccc3F)nn2C)cn1 [Example 17, 5-(4,6-Diethoxy-pyridin-3-yl)-N-(2,6-difluoro-phenyl)-1-methyl-1H-pyrazole-3-carboxylic acid amide] | > 70% | < 0.5 µM |  |
| CCOc1cc(OC)c(-c2cc(C(=O)Nc3c(F)cccc3F)nn2C)cn1 [Example 16, N-(2,6-Difluoro-phenyl)-5-(6-ethoxy-4-methoxy-pyridin-3-yl)-1-methyl-1H-pyrazole-3-carboxylic acid amide] | > 70% | < 0.5 µM |  |
| Cc1cc(OC(F)(F)F)ncc1-c1cc(C(=O)Nc2c(F)cccc2F)nn1C [Example 12, N-(2,6-Difluoro-phenyl)-1-methyl-5-[4-methyl-6-(trifluoromethyloxy)-pyridin-3-yl]-1H-pyrazole-3-carboxylic acid amide] | > 70% | < 0.5 µM | 92% |
| CCOc1cc(O)c(-c2cc(C(=O)Nc3c(F)cccc3F)nn2C)cn1 [Example 71, N-(2,6-Difluoro-phenyl)-5-(6-ethoxy-4-hydroxy-pyridin-3-yl)-1-methyl-1H-pyrazole-3-carboxylic acid amide] | < 50% |  |  |
| COCc1cc(C)c(-c2cc(C(=O)Nc3c(F)cccc3F)nn2C)cn1 [Example 59, N-(2,6-Difluoro-phenyl)-5-[6-(methoxymethyl)-4-methyl-pyridin-3-yl]-1-methyl-1H-pyrazole-3-carboxylic acid amide] | 50 to 70% |  | 67% |
| COc1cc(OCC2CC2)ncc1-c1cc(C(=O)Nc2c(F)cccc2F)nn1C [Example 45, 5-[6-(Cyclopropyl-methoxy)-4-methoxy-pyridin-3-yl]-N-(2,6-difluoro-phenyl)-1-methyl-1H-pyrazole-3-carboxylic acid amide] | > 70% | < 0.5 µM |  |
| Cc1cc(OCC2CCC2)ncc1-c1cc(C(=O)Nc2c(F)cccc2F)nn1C [Example 18] |  | 1 to 5 µM |  |
| Cc1cc(OC(C)C)ncc1-c1cc(C(=O)Nc2c(F)cncc2F)nn1C [Example 52, N-(3,5-Difluoro-pyridin-4-yl)-5-(6-isopropoxy-4-methyl-pyridin-3-yl)-1-methyl-1H-pyrazole-3-carboxylic acid amide] |  | 0.5 to 1 µM |  |
| COc1cc(N(C)C)c(-c2cc(C(=O)Nc3c(F)cccc3F)nn2C)cn1 [Example 75, N-(2,6-Difluoro-phenyl)-5-(4-dimethylamino-6-methoxy-pyridin-3-yl)-1-methyl-1H-pyrazole-3-carboxylic acid amide] |  | 1 to 5 µM |  |
| COc1cc(C(F)(F)F)ncc1-c1cc(C(=O)Nc2c(F)cccc2F)nn1C [Example 42, N-(2,6-Difluoro-phenyl)-5-[4-methoxy-6-(trifluoromethyl)-pyridin-3-yl]-1-methyl-1H-pyrazole-3-carboxylic acid amide] |  | 0.5 to 1 µM |  |
| Cn1nc(C(=O)Nc2c(F)cccc2F)cc1-c1nc(C(F)(F)F)ccc1C#N [Example 72, 5-[3-Cyano-6-(trifluoromethyl)-pyridin-2-yl]-N-(2,6-difluoro-phenyl)-1-methyl-1H-pyrazole-3-carboxylic acid amide] | < 50% |  |  |
| COc1cc(C)c(-c2cc(C(=O)Nc3c(F)cccc3F)nn2C)cn1 [Example 58, N-(2,6-Difluoro-phenyl)-5-(6-methoxy-4-methyl-pyridin-3-yl)-1-methyl-1H-pyrazole-3-carboxylic acid amide] |  | 1 to 5 µM |  |
| Cc1cc(C#N)ncc1-c1cc(C(=O)Nc2c(F)cccc2F)nn1C [Example 41, 5-(6-Cyano-4-methyl-pyridin-3-yl)-N-(2,6-difluoro-phenyl)-1-methyl-1H-pyrazole-3-carboxylic acid amide] | < 50% |  |  |
| Cc1cc(COc2cc(C)c(-c3cc(C(=O)Nc4c(F)cccc4F)nn3C)cn2)no1 [Example 19, N-(2,6-Difluoro-phenyl)-1-methyl-5-[4-methyl-6-[(5-methyl-isoxazol-3-yl)-methoxy]-pyridin-3-yl]-1H-pyrazole-3-carboxylic acid amide] | > 70% |  | 113% |
| Cn1nc(C(=O)Nc2c(F)cccc2F)cc1-c1nc(C(C)(C)C)ccc1C#N [Example 73, 5-(6-tert-Butyl-3-cyano-pyridin-2-yl)-N-(2,6-difluoro-phenyl)-1-methyl-1H-pyrazole-3-carboxylic acid amide] | < 50% |  |  |
